Common to all, as to assay type: binding
Assay [1] relates to Aptamer 21. Briefly: Capture of Aptamer 21 with click-biotinylated probes. The note with it: Aptamer 21 or Aptamer 21-E. As to the method: A 50 μL sample of 1 μM folded Aptamer 21 or Aptamer 21-E solution in folding buffer (20 mM TrisHCl pH 8, 100 mM KCl, 3 mM MgCl2) was added to a 0.5 μL aliquot of 0.5 mM ARK-729, ARK-2058, ARK-816, or ARK-2059 in DMSO or a DMSO-only control. The solution was incubated at 37° C. for 1 h and then irradiated with long wave UV light (˜365 nm) for 30 min in a UV crosslinker (Fisher Scientific). To this solution was added 0.5 μL of 10 mM DBCO-biotin (Click Chemistry Tools, cat. #A105) and 2 μL of 0.5 M EDTA pH 8 and then the solution was incubated at 65° C. for 2 h. The RNA was ethanol precipitated by adding 35 μL of water, 2 uL of 5 mg/mL glycogen, 10 μL 3 M NaOAc pH 5, and 250 μL ethanol, incubating at −80° C. for 1 h, centrifuging at 20000×g for 30 min, washing the pellet twice with 500 μL of 70% ethanol, and then air drying the pellet.
The RNA pellet was redissolved in 50 μL of 1× bind/wash buffer (20 mM TrisHCl pH 7, 100 mM KCl, 0.1% Tween-20). A 50 μL aliquot of MyOne Streptavidin C1 Dynabead slurry (Thermo) was captured on a magnet, washed twice with 50 μL of 1× bind/wash buffer, and then resuspended in 50 μL of the crosslinked RNA sample. The bead suspension was rotated at room temperature for 30 min and then washed twice with 100 μL of 1× bind/wash solution. […]

Assay [2] deals with Aptamer 21 spiked into polyA+ RNA extract. Kind of assay: Capture of Aptamer 21 from PolyA+ RNA extract. The note with it: versus warhead-only control ARK-2059. As to the method:
Total RNA was extracted from a pellet of 5×10^6 HepG2 cells using the ReliaPrep mini-prep kit (Promega) according to the manufacturer's standard protocol. The polyA+ RNA fraction was isolated from 50 μL sample of total RNA at 454 ng/μL using the magnetic mRNA isolation kit (New England Biolabs, cat #S1550) according to the manufacturer's standard protocol using 450 μL of lysis buffer and 100 μL of beads.
A sample of folded aptamer 21 RNA was spiked into a sample of polyA+ RNA extract at a final concentration of 1 nM aptamer 21 and 3 ng/μL polyA+ RNA. […]
Sequencing was performed on a single Illumina HiSeq 4000 lane with 150 bp paired-end reads using the standard manufacturer protocol.
Stitched reads were then processed with Cutadapt (http://dx.doi.org/10.14806/ej.17.1.200) with at least 5-nts of overlap and a maximum of 20% mismatches to simultaneously 1) define a unique 6-nt unique molecular identifier (UMI) in the correct adapter context (ATATAGGN6AGATCGG) (SEQ. […] UMIs were appended to read names, and reads were mapped the against the genome and transcriptome references (plus Aptamer 21) using the STAR aligner (http://dx.doi.org/10.1093/bioinformatics/bts635) with at most 10% mismatches. Groups of reads with identical or near-identical UMIs were then collapsed using the Directional Adjacency methods of UMI-tools (http://dx.doi.org/10.1101/gr.209601.116) with default parameters. […]

Assay [3] deals with Aptamer 21. Briefly: Reverse transcriptase pausing (drop-off) gel assay of photo-crosslinking to Aptamer 21. The note with it: 1 uM RNA, 10 uM probe (9 uM PreQ1 probe), UV ~360 nm. As to the method:
(§1) A solution of RNA at 2 to 5 μM in nuclease-free water was heated to 95° C. for 3 min and then cooled on ice for 2 min. This solution was diluted with ½ volume of 3×RNA folding buffer (60 mM TrisHCl pH 8, 300 mM KCl, 9 mM MgCl2) and incubated at 37° C. for 20 min. Folding was carried out immediately before use of the RNA in each experiment. In cases where a mixture of RNA molecules was used in vitro the RNAs were folded separately and then combined prior to the probing experiment.
Folded RNA (1 μM) was incubated with the photoaffinity probe (10 μM) in total 25 μL of buffer (20 mM TrisHCl pH 8, 100 mM KCl, 3 mM MgCl2) with 2.5% DMSO for 30 min at 37° C. to allow binding to come to equilibrium. The sample was then irradiated with long wave UV light (˜365 nm) for 30 min in a UV crosslinker (Fisher Scientific).
(§2) A 3.75 μL aliquot of 10 μM reverse transcription primer was added to the cross-linked RNA sample, which was then incubated for 5 min at 65° C. and then cooled on ice. The sample was then diluted to a final volume of 60 μL and final buffer concentration of 1× Protoscript-II buffer (New England Biolabs), 0.5 mM dNTPs, 10 mM DTT, 0.4 U/μL RNase Inhibitor (New England Biolabs), and 10 U/μL Protoscript-II (New England Biolabs). The reaction was incubated at 45° C. for 2 h, 65° C. for 20 min, and then 4° C.
The RNA was hydrolyzed by the addition of 4.8 μL of 2.5 M NaOH and heating at 95° C. for 5 min. The reaction was quenched by the addition of 0.9 μL of acetic acid. The cDNA was precipitated by the addition of 6.6 μL of 3 M sodium acetate pH 5 and 181 μL ethanol, cooling to −80° C. for 1 h, and then centrifuging at 20,500×g at 4° C. for 30 min. The cDNA pellet was washed twice with 500 μL of 70% ethanol and then air dried for 5 min.
The cDNA pellet was resuspended in 12 μL of 1×TBE-urea sample loading buffer (Bio-Rad) and heated to 95° C. for 5 min. The sample was then run on a pre-cast 8.6×6.7 cm TBE-urea 10% PAGE gel (Bio-Rad) at 120 V until the lower bromophenol blue dye reached the bottom of the gel. The gel was stained with 1×SYBR-gold (Invitrogen) in 1×TBE buffer at room temperature for 20 min covered from light. The gel fluorescence was imaged on an Azure c600 instrument.

A further assay relates to PreQ1 RNA. Briefly: Reverse transcriptase pausing gel assay of photo-crosslinking to PreQ1 RNA. To be noted: 1 uM RNA, 9 uM PreQ1 probe, UV ~360 nm. As to the method:
as §1
[…] The sample was then irradiated with long wave UV light (˜365 nm) for 30 min in a UV crosslinker (Fisher Scientific).
as §2
The RNA was hydrolyzed by the addition of 4.8 μL of 2.5 M NaOH and heating at 95° C. for 5 min. […]
The cDNA pellet was resuspended in 12 μL of 1×TBE-urea sample loading buffer (Bio-Rad) and heated to 95° C. for 5 min. […] The gel fluorescence was imaged on an Azure c600 instrument.

Each structure is given as a SMILES string.

Regarding `COC(=O)C1=C(COCc2cn(CCOCCOCCC(=O)NCCC3(CCN=[N+]=[N-])N=N3)nn2)NC(c2ccncc2)=NC1c1ccc(F)cc1Cl` (centres unmarked) [ARK-816], the “RT pausing peaks after click-biotinylation and avidin bead enrichment” value with Aptamer 21 [1] is “RT pausing peaks specific to Aptamer 21”. In addition, the “enrichment analysis of Aptamer 21 from PolyA+ RNA extract” value in assay [2] (avidin capture, next-generation sequencing) was “Enrichment of the sites of probe-specific RT pausing on Aptamer 21 was observed”. Moreover, the “RT pausing ratio peaks on Aptamer 21 spiked into PolyA+ RNA extract” value in assay [2] (extract from HepG2 cells) is reported as “observed at the same positions as for isolated Aptamer 21”.
In the case of `CC1(CCC(=O)NCCOCCOCCNCc2c[nH]c3nc(N)[nH]c(=O)c23)N=N1` [I-23], in the assay with Aptamer 21 [3], the “cross-linking with Apt21 RNA (RT pausing)” value is listed as “does not show cross-linking”. In the assay on PreQ1 RNA, the “cross-linking to PreQ1 RNA (RT pausing)” value was “does not show cross-linking”.
